Experimental findings from patent US5362729A, “Dihydropyridine derivatives useful in antitumor therapy” (Farmitalia Carlo ERBA S.r.l., priority 1991, dated 1994) are described below.

In data set [1] the test system is LoVo/DX cells. In words: single-cell plating technique, colony-inhibiting efficacy of Doxorubicin alone or in combination on Doxorubicin-resistant cells. The data set is classed as cell-based, human. How it is done: (§1) LoVo and LoVo/DX cells (human colon adenocarcinoma cell lines sensitive and resistant to Doxorubicin, respectively) were maintained at 37° C. in a humidified atmosphere of 5% CO2. Culture medium was Ham's F12 supplemented with 10% foetal calf serum, 1% vitamins (BME vitamin solution 100 X), and 1% glutamine (200 mM). Both cell lines were passaged twice weekly.
(§2) Doxorubicin, from Farmitalia Carlo erba, was dissolved in sterile water, and the concentrations were checked spectro-photometrically. Solutions of the compounds of the invention using ethanol were prepared immediately before use.
(§3) A single-cell plating technique was utilized for measuring the colony-inhibiting efficacy of drugs alone or drug combinations.
(§4) Exponentially growing LoVo and LoVo/DX cells were adjusted to the concentration of 300 cells.ml^-1 and seeded in 36mm Petri dishes (2 ml/dish).
(§5) After 48h incubation, medium was withdrawn and solutions of invention compounds alone, or Doxorubicin alone or solutions of the combination of both compounds, were added. […]
(§6) Survival was determined as the percentage of colonies in treated samples vs untreated ones. For combination of the compounds of the invention and doxorubicin, survival was calculated using as controls the number of colonies in samples treated with compounds of the invention alone.

Data set [2] has as its system LoVo cells. Description: single-cell plating technique, colony-inhibiting efficacy of Doxorubicin alone or in combination on Doxorubicin-sensitive cells. The data set is classed as cell-based, human. To be noted: Doxorubicin alone. The method, then: as §1, §2, §3, §4, §5, §6
Data set [3] in a line: orientative acute toxicity after single oral administration to mice. To be noted: mouse, in vivo, assessed on the seventh day. How it is done: Mice which had been deprived of food for nine hours were treated orally with single administrations of increasing doses of compounds of the invention, then housed and normally fed. For example the orientative acut toxicity (LD50) of the compound FCE 24265, assessed on the seventh day after treatment, was higher than 800 mg/kg. In view of their low toxicity the compounds of the invention can be safely used in medicine.

Where two headings read alike, the source gives them in different places.

Take `COc1cccc2c1C(=O)c1c(O)c3c(c(O)c1C2=O)C[C@@](O)(C(=O)CO)C[C@@H]3O[C@H]1C[C@H](N)[C@H](O)[C@H](C)O1` [Doxorubicin]: in data set [1] (Doxorubicin alone, LoVo/DX vs LoVo cells, 240 min), the “R.I. (Resistance Index)” value is 49.1. For the same molecule, the IC50 in data set [1] (Homo sapiens, LoVo/DX, 4 h, read-out: IC50 = Concentration inhibiting 50% of colony formation) was 4.91 µg/mL; in data set [2], 0.1 µg/mL; in data set [2] (Homo sapiens, LoVo, read-out: IC50), around 0.1 µg/mL.

With `CCOC(=O)C1=C(C)NC(C)=C(C(=O)OCC)C1c1cccc(-n2ccnc2)c1` [FCE 24265, 1,4-Dihydro-2,6-dimethyl-4-[3-(1H-imidazol-1-yl)phenyl]-3,5-pyridinedicarboxylic acid, diethyl ester], the LD50 at 168 h in data set [3] was above 800 mg/kg.
